Measurements as given in publication PMC6253839, “Screening of Agelasine D and Analogs for Inhibitory Activity against Pathogenic Protozoa; Identification of Hits for Visceral Leishmaniasis and Chagas Disease” (Molecules, 2009).
Converted amounts (≈) assume the structure as drawn. Like-named read-outs stand apart in the source and are kept apart here.

Experiments:
[1] = Cytotoxicity assay, resazurin; type: cell-based; details: human
Method: Cell viability was determined after addition of resazurin.

[2] = system: T. cruzi Tulahuen CL2 strain (nifurtimox-sensitive); test: Antitrypanosomal activity, T. cruzi on MRC-5 cells, β-galactosidase readout; type: cell-based, Trypanosoma cruzi; details: Trypanosoma cruzi, TULAHUEN
Method: To determine in vitro anti-trypanosomal activity, 4×10^3 MRC-5 cells and 4×10^4 parasites were added to each well of test plate with compound. […] The color reaction was read at 540 nm and absorbance values were expressed as a percentage of the blank controls.

[3] = system: Leishmania infantum amastigotes (MHOM/ET 67); test: Antileishmanial activity, amastigotes in primary peritoneal mouse macrophages; type: cell-based; details: for IC50: Leishmania infantum, Macrophage, 120 h, read-out: L. infantum IC50
Method: Leishmania infantum amastigotes (MHOM/ET 67) were collected from an infected donor hamster and used to infect primary peritoneal mouse macrophages. To determine in vitro antileishmanial activity, 3×10^4 macrophages were seeded in each well of a 96-well plate. After 48 h outgrowth, 5×10^4 amastigotes/well were added and incubated for 2 h at 37 °C. […] Parasite burdens were determined microscopically after Giemsa staining and expressed as a percentage of the blank controls without compound.

[4] = system: P. falciparum GHA-strain (chloroquine-suceptible); test: Antiplasmodial activity, Malstat method; type: cell-based, Plasmodium falciparum; details: Plasmodium falciparum, read-out: P. falciparum IC50
[5] = MRC-5 SV2 cells (human fetal lung fibroblasts)
[6] = MRC5, 168 h, read-out: T. cruzi IC50
[7] = intracellular amastigotes, TDR hit criterion <0.5 μg/mL
[8] = GHA-strain, 72 h, TDR hit criterion <0.2 μg/mL

CC1=C(CC/C(C)=C/CC/C(C)=C/Cn2cnc3c2C(=N)N(C)CN3C)C(C)(C)CCC1 [Compound 9]
IC50 at 72 h [1, 5]: > 28 µg/mL
IC50 [2, 6]: 3.2 µg/mL (≈ 7.31 µM)
IC50 ([2]; MRC5, read-out: T. cruzi IC50): < 1 µg/mL
IC50 [3, 7]: > 28 µg/mL
IC50 [4, 8]: > 28 µg/mL

CC(C)=CCC/C(C)=C/CC/C(C)=C/CC/C(C)=C/Cn1c[n+](C)c2ccccc21 [Compound 6]
IC50 at 72 h [1, 5]: 2 µg/mL
IC50 [2, 6]: < 0.12 µg/mL
IC50 [3, 7]: 2.5 µg/mL
IC50 [4, 8]: 1 µg/mL

CONc1ncnc2ncn(C/C=C(\C)CC/C=C(\C)CC/C=C(\C)CCC=C(C)C)c12 [Compound 4b]
IC50 at 72 h [1, 5]: 2.1 µg/mL (≈ 4.8 µM)
IC50 [2, 6]: 0.28 µg/mL (≈ 0.64 µM)
IC50 [3, 7]: > 28 µg/mL
IC50 [4, 8]: > 28 µg/mL

CC1=C(CC/C(C)=C/CC/C(C)=C/C[n+]2cn(C)c3nc[n-]/c(=N\OCc4ccccc4)c32)C(C)(C)CCC1 [Compound 1l]
IC50 at 72 h [1, 5]: 0.53 µg/mL (≈ 1 µM)
IC50 [2, 6]: 0.14 µg/mL (≈ 0.265 µM)
IC50 [3, 7]: 12 µg/mL (≈ 22.7 µM)
IC50 [4, 8]: 1.3 µg/mL

C/C(=C\C[n+]1cn(C)c2ncnc(N)c21)CCCC(C)CCCC(C)CCCC(C)C (stereo not shown) [Compound 2b]
IC50 at 72 h ([1]; read-out: MRC-5 IC50): 0.75 µg/mL
IC50 [2, 6]: < 0.12 µg/mL
IC50 [3]: 2.9 µg/mL
IC50 ([4]; 72 h): 0.96 µg/mL

C=C1CC[C@H]2C(C)(C)CCC[C@]2(C)[C@H]1CC/C(C)=C/Cn1c[n+](C)c2nc[n-]/c(=N\OC(C)(C)C)c21 [Compound 1o]
IC50 at 72 h [1, 5]: 0.45 µg/mL (≈ 0.911 µM)
IC50 [2, 6]: < 0.12 µg/mL
IC50 [3, 7]: 4 µg/mL (≈ 8.1 µM)
IC50 [4, 8]: 0.94 µg/mL

CC(C)=CCC/C(C)=C/CC/C(C)=C/CC/C(C)=C/C[n+]1cn(CCC#N)c2nc[n-]/c(=N\OCc3ccccc3)c21 [Compound 1h]
IC50 at 72 h [1, 5]: 3.5 µg/mL (≈ 6.18 µM)
IC50 [2, 6]: 3 µg/mL (≈ 5.29 µM)
IC50 [3, 7]: 18 µg/mL (≈ 31.8 µM)
IC50 [4, 8]: 10 µg/mL

C=C1CC[C@@H]2C(C)(C)CCC[C@@]2(C)[C@@H]1CC/C(C)=C/Cn1c[n+](C)c2ncnc(N)c21 [Compound 2c, agelasine D]
IC50 at 72 h ([1]; read-out: MRC-5 IC50): 6.7 µg/mL
IC50 [2, 6]: 4.5 µg/mL
IC50 [3, 7]: 1.5 µg/mL
IC50 [4, 8]: 0.29 µg/mL
IC50 ([4]; same value as 0.29 μg/mL, in μM): 0.63 µM

CCN(CC)CCCC(C)Nc1ccnc2cc(Cl)ccc12 (stereo not shown) [Chloroquine, reference compound]
IC50 ([4]; 72 h): 0.04 µg/mL

CC(C)=CCC/C(C)=C\CC/C(C)=C/C[n+]1cn(C)c2nc[n-]/c(=N\OCc3ccccc3)c21 [Compound 1c]
IC50 at 72 h [1, 5]: 0.31 µg/mL (≈ 0.674 µM)
IC50 [2, 6]: < 0.11 µg/mL
IC50 [3, 7]: 0.99 µg/mL (≈ 2.15 µM)
IC50 [4, 8]: 0.74 µg/mL

CC(C)=CCC/C(C)=C/CC/C(C)=C/CC/C(C)=C/Cn1cnc2c(N)ncnc21 [Compound 3f, 9-Geranylgeranyladenine]
IC50 at 72 h [1, 5]: 2.7 µg/mL (≈ 6.62 µM)
IC50 [2, 6]: 0.77 µg/mL (≈ 1.89 µM)
IC50 ([2]; MRC5, read-out: T. cruzi IC50): < 1 µg/mL
IC50 [3, 7]: > 29 µg/mL
IC50 [4, 8]: > 29 µg/mL

O=C(Cn1ccnc1[N+](=O)[O-])NCc1ccccc1 [Benznidazole, reference compound]
IC50 ([2]; MRC5, as printed in running text and table footnote, read-out: T. cruzi IC50): 0.25 µg/mL (≈ 0.961 µM)

CO/N=c1\[n-]cnc2c1n(C/C=C(\C)CCC=C(C)C)c[n+]2C [Compound 1a]
IC50 at 72 h [1, 5]: 0.86 µg/mL (≈ 2.73 µM)
IC50 [2, 6]: < 0.079 µg/mL
IC50 [3, 7]: 7.5 µg/mL (≈ 23.8 µM)
IC50 [4, 8]: 0.46 µg/mL

CC(C)=CCC/C(C)=C/CC/C(C)=C/CC/C(C)=C/C[n+]1cn(C)c2nc[n-]/c(=N\OC(C)(C)C)c21 [Compound 1f]
IC50 at 72 h [1, 5]: 0.26 µg/mL (≈ 0.527 µM)
IC50 [2, 6]: < 0.12 µg/mL
activity against L. infantum, in words [3]: potent inhibitors
IC50 [3, 7]: 0.27 µg/mL (≈ 0.547 µM)
IC50 [4, 8]: 0.26 µg/mL

CO/N=c1\[n-]cnc2c1[n+](C/C=C(\C)CCCC(C)CCCC(C)CCCC(C)C)cn2C (stereo not shown) [Compound 1j]
IC50 at 72 h [1, 5]: 0.21 µg/mL (≈ 0.459 µM)
IC50 [2, 6]: < 0.11 µg/mL
activity against L. infantum, in words [3]: potent inhibitors
IC50 [3, 7]: 0.23 µg/mL (≈ 0.503 µM)
IC50 [4, 8]: 0.3 µg/mL

CC(C)=CCC/C(C)=C/CC/C(C)=C/CC/C(C)=C/C[n+]1cn(C)c2nc[n-]/c(=N\OCc3ccccc3)c21 [Compound 1e]
IC50 at 72 h [1, 5]: 3.2 µg/mL (≈ 6.06 µM)
IC50 [2, 6]: 1.4 µg/mL (≈ 2.65 µM)
IC50 [3, 7]: 5.4 µg/mL (≈ 10.2 µM)
IC50 [4, 8]: 4.2 µg/mL

C=C1CC[C@H]2C(C)(C)CCC[C@]2(C)[C@H]1CC/C(C)=C/Cn1c[n+](C)c2nc[n-]/c(=N\OC)c21 [Compound 1n]
IC50 at 72 h [1, 5]: 4.5 µg/mL (≈ 9.96 µM)
IC50 [2, 6]: 0.49 µg/mL (≈ 1.08 µM)
IC50 [3, 7]: 0.63 µg/mL (≈ 1.39 µM)
IC50 [4, 8]: 0.29 µg/mL

CO/N=c1\[n-]cnc2c1[n+](C/C=C(\C)CC/C=C(\C)CCC=C(C)C)cn2C [Compound 1b]
IC50 at 72 h [1, 5]: 0.35 µg/mL (≈ 0.913 µM)
IC50 [2, 6]: < 0.096 µg/mL
IC50 [3, 7]: 0.77 µg/mL (≈ 2.01 µM)
IC50 [4, 8]: 0.63 µg/mL

CO/N=c1\[n-]cnc2c1[n+](C/C=C(\C)CC/C=C(\C)CC/C=C(\C)CCC=C(C)C)cn2C(c1ccccc1)c1ccccc1 [Compound 1i]
IC50 at 72 h [1, 5]: 0.92 µg/mL (≈ 1.52 µM)
IC50 [2, 6]: 1.3 µg/mL (≈ 2.15 µM)
IC50 [3, 7]: 1.2 µg/mL (≈ 1.99 µM)
IC50 [4, 8]: 3.5 µg/mL

CC(C)=CCC/C(C)=C/CC/C(C)=C/CC/C(C)=C/C[n+]1cnc2c(ncn2C)c1N [Compound 7]
IC50 at 72 h [1, 5]: 16 µg/mL
IC50 [2, 6]: 11 µg/mL
IC50 [3, 7]: > 32 µg/mL
IC50 [4, 8]: 10 µg/mL

CC(C)=CCC/C(C)=C/CC/C(C)=C/CC/C(C)=C/Cn1cnc2ncnc(NOCc3ccccc3)c21 [Compound 4c]
IC50 at 72 h [1, 5]: 1.5 µg/mL (≈ 2.92 µM)
IC50 [2, 6]: 1.5 µg/mL (≈ 2.92 µM)
IC50 [3, 7]: > 33 µg/mL
IC50 [4, 8]: 25 µg/mL

CC(C)=CCC/C(C)=C/CC/C(C)=C/CC/C(C)=C/Cn1cnc2ncnc(N)c21 [Compound 4a]
IC50 at 72 h [1, 5]: 2.6 µg/mL (≈ 6.38 µM)
IC50 [2, 6]: 2.3 µg/mL (≈ 5.64 µM)
IC50 [3, 7]: > 26 µg/mL
IC50 [4, 8]: 9.4 µg/mL

CO/N=c1\[n-]cnc2c1[n+](C/C=C(\C)CC/C=C(\C)CC/C=C(\C)CCC=C(C)C)cn2CCC#N [Compound 1g]
IC50 at 72 h [1, 5]: 0.49 µg/mL (≈ 0.999 µM)
IC50 [2, 6]: 0.81 µg/mL (≈ 1.65 µM)
IC50 [3, 7]: 12 µg/mL (≈ 24.5 µM)
IC50 [4, 8]: 5.3 µg/mL

CC1=C(CC/C(C)=C/CC/C(C)=C/C[n+]2cn(C)c3nc[n-]/c(=N\OC(C)(C)C)c32)C(C)(C)CCC1 [Compound 1m]
IC50 at 72 h [1, 5]: 0.48 µg/mL (≈ 0.972 µM)
IC50 [2, 6]: < 0.12 µg/mL
IC50 [3, 7]: 0.99 µg/mL (≈ 2.01 µM)
IC50 [4, 8]: 0.69 µg/mL

CC(C)=CCC/C(C)=C/CC/C(C)=C/CC/C(C)=C/Cn1cnc2c1c(=N)ncn2C [Compound 8]
IC50 at 72 h [1, 5]: 2.3 µg/mL (≈ 5.45 µM)
IC50 [2, 6]: 0.19 µg/mL (≈ 0.451 µM)
IC50 [3, 7]: 13 µg/mL (≈ 30.8 µM)
IC50 [4, 8]: 3.37 µg/mL

CCCCCCCCCCCCCCCCOP(=O)([O-])OCC[N+](C)(C)C [Miltefosine, reference compound]
IC50 [3, 7]: 0.24 µg/mL (≈ 0.589 µM)
